Patent US9126984B2, “4-(indol-3-yl)-pyrazole derivatives, pharmaceutical compositions and methods for use” (ITEOS THERAPEUTICS, priority 2013, dated 2015)

Tests used:
[1] = molecular target: T1, human recombinant TDO2 enzyme (Homo sapiens, UniProt P48775); assay: Assay for TDO2 enzymatic activity determination; assay type: biochemical; conditions: human recombinant TDO2, L-Trp 1 mM, room temperature one hour, kynurenine absorbance at 480 nm
T1 construct: made in house
Description: To measure the TDO2 activity, the reaction mixture contained (final concentrations) potassium phosphate buffer (50 mM, pH 7.5), ascorbic acid (0.25 M), methylene blue (0.125 μM), catalase (40 units/mL, from bovine liver, Sigma), and human recombinant TDO2 enzyme (prepared as described in Dolusic et al. J. Med. Chem.; 2011, 54, 5320-5334; 0.9 μg) without or with the compounds of the present invention embodiments at the indicated concentrations (total volume 112.5 μL). The reaction was initiated by the addition of 37.5 μL of L-Trp (final concentration 1 mM) at room temperature. The reaction was conducted at room temperature during one hour and stopped by the addition of 30 μL of 30% (w/v) trichloroacetic acid.
To convert N-formylkynurenine into kynurenine, the reaction mixture was incubated at 65° C. for 30 min. Then 150 μL of the reaction mixture was mixed with 120 μL, of 2.5% (w/v) 4-(dimethylamino)-benzaldehyde in acetic acid and incubated for 5 min at room temperature. Kynurenine concentrations were determined by measuring the absorbance at 480 nm. A standard curve was made with pure kynurenine. The TDO activity was measured as described above using ten serial concentrations of certain embodiments of the compounds of the present invention. Data were fitted using the Prism software (GraphPad Software, Inc.).

[2] = molecular target: T2, murine mastocytoma P815 cells overexpressing hTDO2 (Homo sapiens, UniProt P48775); assay: Cellular assay for TDO2 activity determination; assay type: cell-based; conditions: P815 cells overexpressing hTDO2, overnight incubation at 37° C., kynurenine absorbance at 480 nm
T2 construct: expressed in transfected cells; host or cells: murine mastocytoma P815 cells
T2 sequence (P48775 whole entry): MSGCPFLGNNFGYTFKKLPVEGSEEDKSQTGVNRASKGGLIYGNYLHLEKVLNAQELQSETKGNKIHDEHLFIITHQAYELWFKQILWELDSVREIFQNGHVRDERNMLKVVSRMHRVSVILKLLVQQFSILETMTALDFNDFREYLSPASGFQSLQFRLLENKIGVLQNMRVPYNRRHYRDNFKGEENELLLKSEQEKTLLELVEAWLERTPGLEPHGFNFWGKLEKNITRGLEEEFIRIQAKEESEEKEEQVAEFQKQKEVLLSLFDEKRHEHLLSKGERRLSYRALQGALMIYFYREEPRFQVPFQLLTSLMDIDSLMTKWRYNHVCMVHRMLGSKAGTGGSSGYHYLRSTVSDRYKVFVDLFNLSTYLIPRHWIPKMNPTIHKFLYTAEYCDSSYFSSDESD
Description: The assay was performed in 96-well flat bottom plates seeded with murine mastocytoma P815 cells overexpressing hTDO2 (prepared as described in Pilotte et al., PNAS, 2012, 109(7), 2497-2502), at a concentration of 5×10^4 cells/well in a final volume of 200 μL. To determine TDO or IDO activity, the cells were incubated overnight at 37° C. at 5% CO2 in IMDM (Invitrogen) supplemented with 2% FBS and 2% penicillin/streptomycin in the presence of the compounds of the present invention, at different concentrations.
The plates were then centrifuged 5 min at 1000 rpm, and 100 μL of the supernatant were collected in a conical plate, 30 uL of TCA 30% were added and a further centrifugated at 3000×g for 10 minutes. 100 μL of the supernatant were collected in a flat bottomed plate and 100 μL of 2% (w/v) 4-(dimethylamino)-benzaldehyde in acetic acid and incubated for 5 min at room temperature. Kynurenine concentrations were determined by measuring the absorbance at 480 nm. A standard curve was made with pure kynurenine. The TDO activity was measured as described above using ten serial concentrations of the compounds of the present invention. Data were fitted using the Prism software (GraphPad Software, Inc.).

T1 sequence (P48775 whole entry): as above

| Structure (SMILES) | IC50 [1] | IC50 [2] |
| --- | --- | --- |
| O=C(O)[C@H]1C[C@@H](n2cc(-c3c[nH]c4cc(F)ccc34)cn2)C1 [Example 65, (1S,3S)-3-(4-(6-fluoro-1H-indol-3-yl)-1H-pyrazol-1-yl)cyclobutanecarboxylic acid] | 10 to 100 µM | – |
| CC(=O)N1CCN(CCn2cc(-c3c[nH]c4cc(F)ccc34)cn2)CC1 [Example 28, 1-(4-(2-(4-(6-fluoro-1H-indol-3-yl)-1H-pyrazol-1-yl)ethyl)piperazin-1-yl)ethanone] | 10 to 100 µM | – |
| Fc1ccc2c(-c3cnn(-c4ccc(Cl)nn4)c3)c[nH]c2c1 [Example 108, 3-(1-(6-chloropyridazin-3-yl)-1H-pyrazol-4-yl)-6-fluoro-1H-indole] | 10 to 100 µM | – |
| O[C@H]1CC[C@H](n2cc(-c3c[nH]c4cc(F)ccc34)cn2)CC1 [Example 69, (1R,4R)-4-(4-(6-fluoro-1H-indol-3-yl)-1H-pyrazol-1-yl)cyclohexanol] | 1 to 10 µM | 1 to 10 µM |
| CNC(=O)[C@H]1C[C@H](n2cc(-c3c[nH]c4cc(F)ccc34)cn2)C1 [Example 64, (1R,3R)-3-(4-(6-fluoro-1H-indol-3-yl)-1H-pyrazol-1-yl)-N-methylcyclobutanecarboxamide] | 1 to 10 µM | – |
| O=C(O)CCn1cc(-c2c[nH]c3cc(F)c(F)cc23)cn1 [Example 17, 3-(4-(5,6-difluoro-1H-indol-3-yl)-1H-pyrazol-1-yl)propanoic acid] | 10 to 100 µM | – |
| CNC(=O)N1CC(n2cc(-c3c[nH]c4cc(F)ccc34)cn2)C1 [Example 5, 3-(4-(6-fluoro-1H-indol-3-yl)-1H-pyrazol-1-yl)-N-methylazetidine-1-carboxamide] | 1 to 10 µM | – |
| COC(=O)Cn1cc(-c2c[nH]c3cc(F)ccc23)cn1 [Example 42, methyl 2-(4-(6-fluoro-1H-indol-3-yl)-1H-pyrazol-1-yl)acetate] | 1 to 10 µM | – |
| Fc1ccc2c(-c3cnn(CCN4CCOCC4)c3)c[nH]c2c1 [Example 20, 4-(2-(4-(6-fluoro-1H-indol-3-yl)-1H-pyrazol-1-yl)ethyl)morpholine] | 1 to 10 µM | 1 to 10 µM |
| O=C1CCCN1CCn1cc(-c2c[nH]c3cc(F)ccc23)cn1 [Example 30, 1-(2-(4-(6-fluoro-1H-indol-3-yl)-1H-pyrazol-1-yl)ethyl)pyrrolidin-2-one] | 1 to 10 µM | – |
| O=C(O)CCC(=O)N1CCC(Cn2cc(-c3c[nH]c4cc(F)ccc34)cn2)CC1 [Example 50, 4-(4-((4-(6-fluoro-1H-indol-3-yl)-1H-pyrazol-1-yl)methyl)piperidin-1-yl)-4-oxobutanoic acid] | 10 to 100 µM | – |
| CNC(=O)[C@H]1C[C@@H](n2cc(-c3c[nH]c4cc(F)ccc34)cn2)C1 [Example 63, (1S,3S)-3-(4-(6-fluoro-1H-indol-3-yl)-1H-pyrazol-1-yl)-N-methylcyclobutanecarboxamide] | 1 to 10 µM | – |
| COCCC(=O)N1CCC(n2cc(-c3c[nH]c4cc(F)ccc34)cn2)CC1 [Example 81, 1-(4-(4-(6-fluoro-1H-indol-3-yl)-1H-pyrazol-1-yl)piperidin-1-yl)-3-methoxypropan-1-one] | 1 to 10 µM | – |
| Fc1ccc2c(-c3cnn(CC4CCN(CC(F)(F)F)CC4)c3)c[nH]c2c1 [Example 45, 6-fluoro-3-(1-((1-(2,2,2-trifluoroethyl)piperidin-4-yl)methyl)-1H-pyrazol-4-yl)-1H-indole] | 1 to 10 µM | – |
| CN(C)C(=O)CCn1cc(-c2c[nH]c3cc(F)ccc23)cn1 [Example 15, 3-(4-(6-fluoro-1H-indol-3-yl)-1H-pyrazol-1-yl)-N,N-dimethylpropanamide] | 1 to 10 µM | – |
| CC(=O)N1CC(n2cc(-c3c[nH]c4cc(F)ccc34)cn2)C1 [Example 3, 1-(3-(4-(6-fluoro-1H-indol-3-yl)-1H-pyrazol-1-yl)azetidin-1-yl)ethanone] | 1 to 10 µM | – |
| NC(=O)N1CC(n2cc(-c3c[nH]c4cc(F)ccc34)cn2)C1 [Example 4, 3-(4-(6-fluoro-1H-indol-3-yl)-1H-pyrazol-1-yl)azetidine-1-carboxamide] | 1 to 10 µM | – |
| O=C(O)Cn1cc(-c2c[nH]c3cc(F)ccc23)cn1 [Example 41, 2-(4-(6-fluoro-1H-indol-3-yl)-1H-pyrazol-1-yl)acetic acid] | 10 to 100 µM | – |
| FC(F)(F)c1ccc2c(-c3cn[nH]c3)c[nH]c2c1 [Example 72, 3-(1H-pyrazol-4-yl)-6-(trifluoromethyl)-1H-indole] | 10 to 100 µM | – |
| O=C(O)CN1CCC(Cn2cc(-c3c[nH]c4cc(F)ccc34)cn2)CC1 [Example 49, 2-(4-((4-(6-fluoro-1H-indol-3-yl)-1H-pyrazol-1-yl)methyl)piperidin-1-yl)acetic acid] | 1 to 10 µM | – |
| O=C(O)CCn1cc(-c2c[nH]c3cc(F)ccc23)cn1 [Example 16, 3-(4-(6-fluoro-1H-indol-3-yl)-1H-pyrazol-1-yl)propanoic acid] | 1 to 10 µM | – |
| CNC(=O)NCCn1cc(-c2c[nH]c3cc(F)ccc23)cn1 [Example 23, 1-(2-(4-(6-fluoro-1H-indol-3-yl)-1H-pyrazol-1-yl)ethyl)-3-methylurea] | 1 to 10 µM | – |
| CNC(=O)CCn1cc(-c2c[nH]c3cc(F)ccc23)cn1 [Example 14, 3-(4-(6-fluoro-1H-indol-3-yl)-1H-pyrazol-1-yl)-N-methylpropanamide] | 1 to 10 µM | – |
| O=C(O)[C@H]1C[C@H](n2cc(-c3c[nH]c4cc(F)ccc34)cn2)C1 [Example 66, (1R,3R)-3-(4-(6-fluoro-1H-indol-3-yl)-1H-pyrazol-1-yl)cyclobutanecarboxylic acid] | 10 to 100 µM | – |

Continued, values first:

| IC50 [1] | IC50 [2] | Structure (SMILES) |
| --- | --- | --- |
| < 1 µM | < 1 µM | Fc1ccc2c(-c3cnn(CC4CCNCC4)c3)c[nH]c2c1 [Example 43, 6-fluoro-3-(1-(piperidin-4-ylmethyl)-1H-pyrazol-4-yl)-1H-indole] |
| 1 to 10 µM | 1 to 10 µM | COCC(=O)N1CCC(n2cc(-c3c[nH]c4cc(F)ccc34)cn2)CC1 [Example 85, 1-(4-(4-(6-fluoro-1H-indol-3-yl)-1H-pyrazol-1-yl)piperidin-1-yl)-2-methoxyethanone] |
| 1 to 10 µM | – | O=C1NCCN1CCn1cc(-c2c[nH]c3cc(F)ccc23)cn1 [Example 18, 1-(2-(4-(6-fluoro-1H-indol-3-yl)-1H-pyrazol-1-yl)ethyl)imidazolidin-2-one] |
| < 1 µM | < 1 µM | Fc1ccc2c(-c3cnn(-c4cccnc4)c3)c[nH]c2c1 [Example 112, 6-fluoro-3-(1-(pyridin-3-yl)-1H-pyrazol-4-yl)-1H-indole] |
| 1 to 10 µM | 1 to 10 µM | Fc1ccc2c(-c3cnn(-c4ccnnc4)c3)c[nH]c2c1 [Example 110, 6-fluoro-3-(1-(pyridazin-4-yl)-1H-pyrazol-4-yl)-1H-indole] |
| < 1 µM | < 1 µM | Fc1ccc2c(-c3cnn(-c4ccccn4)c3)c[nH]c2c1 [Example 111, 6-fluoro-3-(1-(pyridin-2-yl)-1H-pyrazol-4-yl)-1H-indole] |
| 1 to 10 µM | – | CCC(=O)N1CCC(n2cc(-c3c[nH]c4cc(F)ccc34)cn2)CC1 [Example 82, 1-(4-(4-(6-fluoro-1H-indol-3-yl)-1H-pyrazol-1-yl)piperidin-1-yl)propan-1-one] |
| 1 to 10 µM | – | OCCN1CCC(n2cc(-c3c[nH]c4cc(F)ccc34)cn2)CC1 [Example 79, 2-(4-(4-(6-fluoro-1H-indol-3-yl)-1H-pyrazol-1-yl)piperidin-1-yl)ethanol] |
| 1 to 10 µM | 1 to 10 µM | NC(=O)[C@H]1C[C@H](n2cc(-c3c[nH]c4cc(F)ccc34)cn2)C1 [Example 62, (1R,3R)-3-(4-(6-fluoro-1H-indol-3-yl)-1H-pyrazol-1-yl)cyclobutanecarboxamide] |
| 1 to 10 µM | – | CN(C)CCNC(=O)CCn1cc(-c2c[nH]c3cc(F)ccc23)cn1 [Example 13, N-(2-(dimethylamino)ethyl)-3-(4-(6-fluoro-1H-indol-3-yl)-1H-pyrazol-1-yl)propanamide] |
| < 1 µM | < 1 µM | Fc1cc2[nH]cc(-c3cn[nH]c3)c2cc1F [Example 71, 5,6-difluoro-3-(1H-pyrazol-4-yl)-1H-indole] |
| < 1 µM | < 1 µM | Fc1ccc2c(-c3cnn(CC4CCN(C5CC5)CC4)c3)c[nH]c2c1 [Example 52, 3-(1-((1-cyclopropylpiperidin-4-yl)methyl)-1H-pyrazol-4-yl)-6-fluoro-1H-indole] |
